In patent US11246847B2, “Anticancer drug effect enhancer” (Delta-Fly Pharma, Inc., priority 2019, dated 2022):

Key:
[1] = Change in pH of urine after citrate salt or sodium bicarbonate in a person with acidic urine (Example 1)
Experimental: A citrate salt was administered to a person with acidic urine in accordance with the following dosage regimen, and a change in pH value of urine was then measured over time.
(1) A potassium citrate•sodium citrate hydrate 500 mg tablet (Uralyt Tablet (manufactured by Nippon Chemiphar Co., Ltd.)) is administered at 6 tablets (3 g) once a day after a meal.

[2] = test system: stage IVB ovarian cancer; settings: from July 2018, bicarbonate continued, before endoxan
[3] = 3 g once a day, compared to potassium citrate•sodium citrate hydrate

## O=C([O-])O.[Na+] [sodium salt of hydrogencarbonate ions, sodium bicarbonate]
[1]; 3 g once a day after a meal
  side effect observed: the patient often burped
[1]; [3]
  rate of alkalization of urine: higher
  rate of urine turning acidic again: higher
  time during which the urine was kept alkaline: shorter
[1]; person with acidic urine, 6 tablets (3 g) orally once a day after a meal
  pH of urine / ability to keep the urine alkaline: poorer ability to keep the urine alkaline
[2]
  value of CA125: 199
